23 targets from the supplement of paper PMC12463676, “Small-molecule dissolution of stress granules by redox modulation benefits ALS models” (Nature Chemical Biology, 2025) can be followed below.

Compound in one experiment: O=[As]([O-])(O)O.[K+] [potassium arsenate]
The experiment is described as follows: thermal stability z-score vs DMSO; higher = more thermally stabilized by treatment. The conditions noted are these: HeLa; arsenate concentration 1 mM. The method, then: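 Cellular thermal proteome profiling in HeLa cells treated with 1 mM arsenate for 1 h (DMSO pretreatment), heated to ten temperatures (37-66.3 °C). Soluble protein was quantified by TMT mass spectrometry relative to DMSO controls; the thermal stability score was transformed to a z-score; mean of n = 3 experiments.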

Compound in another experiment: NC(=O)CCCCC1CCSS1 [lipoamide]
The description is as above. The settings on record: HeLa, lipoamide concentration 100 µM. The protocol:
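Cellular thermal proteome profiling in HeLa cells. Cells were treated with 100 µM lipoamide for 1 h, with or without 1 mM arsenate for a further 1 h, then heated to ten temperatures (37-66.3 °C), and soluble protein was quantified by TMT mass spectrometry relative to 0.1% DMSO controls. The thermal stability score (sum of log2 fold changes minus the abundance score) was transformed to a z-score; mean of n = 3 experiments.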

The mark [1] stands for this setting: arsenate co-treatment: 1 mM arsenate 1 h.
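Also: each temperature applied for 3 min, abundance score taken as mean log2 fold change at the two lowest temperatures, z-score obtained by mean subtraction and division by SD.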

Sequence of UniProt Q8NDH3 (Q8NDH3 whole entry): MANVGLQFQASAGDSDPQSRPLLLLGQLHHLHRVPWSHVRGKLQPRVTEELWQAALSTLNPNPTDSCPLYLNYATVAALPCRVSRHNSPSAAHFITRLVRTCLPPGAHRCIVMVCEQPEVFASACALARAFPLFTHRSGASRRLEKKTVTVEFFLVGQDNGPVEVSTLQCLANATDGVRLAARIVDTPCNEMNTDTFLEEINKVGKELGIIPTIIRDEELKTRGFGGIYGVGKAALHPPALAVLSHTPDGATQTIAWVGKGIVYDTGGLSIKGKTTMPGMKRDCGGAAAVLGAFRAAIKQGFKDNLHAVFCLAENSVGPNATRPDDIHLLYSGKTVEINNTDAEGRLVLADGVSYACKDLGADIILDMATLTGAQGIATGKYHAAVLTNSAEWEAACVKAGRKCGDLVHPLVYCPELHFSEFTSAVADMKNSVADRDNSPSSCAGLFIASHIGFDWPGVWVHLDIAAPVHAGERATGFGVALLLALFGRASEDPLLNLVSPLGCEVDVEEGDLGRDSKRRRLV
Sequence of UniProt Q9NRX1 (Q9NRX1 whole entry): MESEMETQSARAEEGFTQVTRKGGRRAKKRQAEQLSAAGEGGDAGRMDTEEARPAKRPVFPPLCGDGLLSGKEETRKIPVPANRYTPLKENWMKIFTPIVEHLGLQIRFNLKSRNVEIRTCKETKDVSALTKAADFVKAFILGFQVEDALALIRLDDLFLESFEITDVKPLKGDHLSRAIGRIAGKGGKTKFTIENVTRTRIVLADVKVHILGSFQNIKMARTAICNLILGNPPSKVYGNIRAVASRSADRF
Sequence of UniProt P16035 (P16035 whole entry): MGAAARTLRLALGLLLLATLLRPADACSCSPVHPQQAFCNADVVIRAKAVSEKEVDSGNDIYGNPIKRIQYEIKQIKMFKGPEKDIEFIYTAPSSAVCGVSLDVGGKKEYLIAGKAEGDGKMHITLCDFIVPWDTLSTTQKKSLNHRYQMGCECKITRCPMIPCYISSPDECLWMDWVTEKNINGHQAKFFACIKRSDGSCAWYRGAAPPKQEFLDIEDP
Sequence of UniProt P54760 (P54760 whole entry): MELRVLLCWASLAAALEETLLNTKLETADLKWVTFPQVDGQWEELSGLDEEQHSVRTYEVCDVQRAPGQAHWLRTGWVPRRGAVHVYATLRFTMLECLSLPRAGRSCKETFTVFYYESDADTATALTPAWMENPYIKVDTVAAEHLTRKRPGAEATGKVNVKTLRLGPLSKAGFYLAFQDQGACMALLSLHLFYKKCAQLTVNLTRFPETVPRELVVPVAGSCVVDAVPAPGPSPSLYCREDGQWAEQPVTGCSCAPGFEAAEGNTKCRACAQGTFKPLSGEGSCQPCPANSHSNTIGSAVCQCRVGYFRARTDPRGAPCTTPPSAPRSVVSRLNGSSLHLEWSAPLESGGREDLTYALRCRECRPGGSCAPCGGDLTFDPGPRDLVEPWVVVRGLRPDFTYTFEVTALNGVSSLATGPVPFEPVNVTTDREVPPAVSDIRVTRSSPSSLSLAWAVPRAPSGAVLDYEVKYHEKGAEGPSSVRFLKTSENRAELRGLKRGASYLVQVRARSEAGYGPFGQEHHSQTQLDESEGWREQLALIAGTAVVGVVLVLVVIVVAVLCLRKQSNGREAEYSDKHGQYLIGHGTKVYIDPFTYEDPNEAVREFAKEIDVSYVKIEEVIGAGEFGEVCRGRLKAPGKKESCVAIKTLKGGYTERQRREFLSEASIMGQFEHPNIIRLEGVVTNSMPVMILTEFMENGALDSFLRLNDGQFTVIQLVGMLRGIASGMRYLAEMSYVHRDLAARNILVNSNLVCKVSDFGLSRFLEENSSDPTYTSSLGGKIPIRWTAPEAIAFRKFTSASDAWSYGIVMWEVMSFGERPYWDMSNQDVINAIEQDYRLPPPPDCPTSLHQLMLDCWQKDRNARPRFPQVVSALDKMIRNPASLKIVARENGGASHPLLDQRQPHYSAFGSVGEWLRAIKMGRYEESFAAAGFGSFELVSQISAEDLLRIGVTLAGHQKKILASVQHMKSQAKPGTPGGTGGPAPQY
Sequence of UniProt Q92890 (Q92890 whole entry): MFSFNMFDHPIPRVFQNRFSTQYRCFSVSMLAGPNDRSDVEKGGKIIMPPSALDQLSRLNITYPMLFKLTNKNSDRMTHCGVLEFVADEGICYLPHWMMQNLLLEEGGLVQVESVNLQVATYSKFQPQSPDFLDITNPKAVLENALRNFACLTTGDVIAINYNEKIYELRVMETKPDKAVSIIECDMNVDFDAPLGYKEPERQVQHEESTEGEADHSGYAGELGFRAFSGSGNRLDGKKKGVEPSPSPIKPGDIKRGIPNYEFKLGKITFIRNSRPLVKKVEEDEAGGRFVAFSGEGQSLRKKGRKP
Sequence of UniProt Q6ZRV2 (Q6ZRV2 whole entry): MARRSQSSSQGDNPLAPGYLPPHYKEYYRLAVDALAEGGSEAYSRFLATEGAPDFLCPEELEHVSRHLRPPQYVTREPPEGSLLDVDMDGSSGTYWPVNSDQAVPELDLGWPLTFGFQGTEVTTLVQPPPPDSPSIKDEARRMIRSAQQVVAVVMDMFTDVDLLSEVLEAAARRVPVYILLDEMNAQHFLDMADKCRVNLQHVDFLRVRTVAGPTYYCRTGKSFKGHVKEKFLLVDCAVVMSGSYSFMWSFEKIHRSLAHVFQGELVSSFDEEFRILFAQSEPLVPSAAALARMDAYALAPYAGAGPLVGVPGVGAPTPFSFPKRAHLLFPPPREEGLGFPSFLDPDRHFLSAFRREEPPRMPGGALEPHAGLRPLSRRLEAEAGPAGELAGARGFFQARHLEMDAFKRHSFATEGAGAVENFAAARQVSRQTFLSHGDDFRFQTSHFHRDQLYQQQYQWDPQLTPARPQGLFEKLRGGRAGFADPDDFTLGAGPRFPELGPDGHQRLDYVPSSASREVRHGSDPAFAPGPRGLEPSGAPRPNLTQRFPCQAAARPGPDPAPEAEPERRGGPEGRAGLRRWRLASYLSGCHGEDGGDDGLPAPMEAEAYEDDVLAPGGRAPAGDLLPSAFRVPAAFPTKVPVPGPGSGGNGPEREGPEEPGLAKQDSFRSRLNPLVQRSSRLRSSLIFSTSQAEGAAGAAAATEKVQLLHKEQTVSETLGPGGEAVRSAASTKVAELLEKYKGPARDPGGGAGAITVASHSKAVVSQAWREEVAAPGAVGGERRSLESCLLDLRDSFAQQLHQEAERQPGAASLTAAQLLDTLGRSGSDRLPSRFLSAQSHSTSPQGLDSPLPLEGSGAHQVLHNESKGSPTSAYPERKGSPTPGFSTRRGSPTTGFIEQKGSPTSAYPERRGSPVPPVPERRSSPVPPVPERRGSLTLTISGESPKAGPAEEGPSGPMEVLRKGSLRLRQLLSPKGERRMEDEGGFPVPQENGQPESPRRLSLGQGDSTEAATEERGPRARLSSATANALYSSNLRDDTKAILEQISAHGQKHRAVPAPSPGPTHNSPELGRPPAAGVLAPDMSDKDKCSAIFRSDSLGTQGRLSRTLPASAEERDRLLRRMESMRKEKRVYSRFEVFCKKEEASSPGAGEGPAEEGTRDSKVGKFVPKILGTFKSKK
Sequence of UniProt Q9UPN4 (Q9UPN4 whole entry): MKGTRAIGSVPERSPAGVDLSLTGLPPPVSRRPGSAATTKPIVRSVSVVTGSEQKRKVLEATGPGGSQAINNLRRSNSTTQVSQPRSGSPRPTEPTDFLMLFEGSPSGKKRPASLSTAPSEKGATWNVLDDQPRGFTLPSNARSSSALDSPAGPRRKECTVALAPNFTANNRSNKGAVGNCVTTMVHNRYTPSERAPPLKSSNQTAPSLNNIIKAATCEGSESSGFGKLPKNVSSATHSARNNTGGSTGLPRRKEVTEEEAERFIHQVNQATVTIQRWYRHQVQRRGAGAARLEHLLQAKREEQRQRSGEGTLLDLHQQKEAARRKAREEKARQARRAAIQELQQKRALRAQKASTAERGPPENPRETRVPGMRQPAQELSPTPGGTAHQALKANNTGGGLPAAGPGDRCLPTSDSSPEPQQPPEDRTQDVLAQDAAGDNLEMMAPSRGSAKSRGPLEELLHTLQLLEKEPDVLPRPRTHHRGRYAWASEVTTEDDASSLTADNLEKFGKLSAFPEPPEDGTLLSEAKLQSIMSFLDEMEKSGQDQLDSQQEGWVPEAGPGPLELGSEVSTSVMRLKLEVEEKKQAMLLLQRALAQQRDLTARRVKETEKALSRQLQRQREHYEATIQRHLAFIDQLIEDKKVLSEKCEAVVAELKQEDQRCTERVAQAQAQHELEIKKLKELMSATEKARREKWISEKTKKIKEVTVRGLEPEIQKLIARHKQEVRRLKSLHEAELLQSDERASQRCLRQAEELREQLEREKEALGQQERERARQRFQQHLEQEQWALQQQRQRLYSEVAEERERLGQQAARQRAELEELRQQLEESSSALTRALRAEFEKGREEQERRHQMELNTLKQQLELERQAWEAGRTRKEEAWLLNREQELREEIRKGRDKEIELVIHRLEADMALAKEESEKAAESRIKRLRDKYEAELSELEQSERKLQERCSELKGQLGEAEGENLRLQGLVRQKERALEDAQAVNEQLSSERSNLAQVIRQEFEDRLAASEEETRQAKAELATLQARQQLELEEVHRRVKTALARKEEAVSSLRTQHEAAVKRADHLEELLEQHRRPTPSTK
Sequence of UniProt O43402 (O43402 whole entry): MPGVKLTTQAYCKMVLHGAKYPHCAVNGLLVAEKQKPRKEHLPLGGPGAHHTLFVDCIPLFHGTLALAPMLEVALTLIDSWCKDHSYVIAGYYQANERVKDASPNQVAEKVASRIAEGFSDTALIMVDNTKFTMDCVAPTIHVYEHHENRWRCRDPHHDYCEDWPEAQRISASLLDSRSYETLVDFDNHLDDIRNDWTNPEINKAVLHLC
Sequence of UniProt Q9UMS0 (Q9UMS0 whole entry): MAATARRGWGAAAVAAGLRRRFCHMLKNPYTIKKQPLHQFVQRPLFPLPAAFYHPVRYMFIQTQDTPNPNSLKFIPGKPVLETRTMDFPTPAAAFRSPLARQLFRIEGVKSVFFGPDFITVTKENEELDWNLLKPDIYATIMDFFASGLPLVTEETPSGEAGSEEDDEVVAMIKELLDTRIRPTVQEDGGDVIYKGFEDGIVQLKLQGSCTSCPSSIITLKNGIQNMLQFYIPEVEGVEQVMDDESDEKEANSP

As for PNO1 (UniProt Q9NRX1), the thermal stability z-score with potassium arsenate is -0.698; with lipoamide (setting [1]) it was 0.465; with lipoamide (arsenate co-treatment: none) it was 0.362.
On the same counts, the results for HBS1L (UniProt Q9Y450) are -0.278, 0.179 and 0.0726.
Consider ABHD14B (UniProt Q96IU4), for which the thermal stability z-score with potassium arsenate was 0.527; with lipoamide (setting [1]), 1.24; with lipoamide (arsenate co-treatment: none) it was 0.828.
Take EMC8 (UniProt O43402): the values for the thermal stability z-score with potassium arsenate, in the experiment with lipoamide (setting [1]) and with lipoamide (arsenate co-treatment: none) were 0.348, 0.0729 and 0.209, respectively.
The matching figures for PTPN9 (UniProt P43378): 0.0393, -0.0496 and 0.0634.
Take SRGN (UniProt P10124): the thermal stability z-score in the experiment with potassium arsenate was -0.673; with lipoamide (setting [1]), -0.234; in the experiment with lipoamide (arsenate co-treatment: none) it was 0.0347.
Consider UNC119 (UniProt Q13432), for which the thermal stability z-score is -0.0734 with potassium arsenate, 0.0331 in the experiment with lipoamide (setting [1]) and 0.106 with lipoamide (arsenate co-treatment: none).
The matching figures for NFU1 (UniProt Q9UMS0): 0.227, 0.559 and 0.402.
On the same counts, the results for LRPAP1 (UniProt P30533) are -0.32, -1.07 and -0.56.
AAAS (UniProt Q9NRG9): the thermal stability z-score with potassium arsenate was 0.108; in the experiment with lipoamide (setting [1]), -0.373; in the experiment with lipoamide (arsenate co-treatment: none), -0.12.
The matching figures for TIMP2 (UniProt P16035): 0.923, -0.833 and -0.411.
Take FAM83H (UniProt Q6ZRV2): the thermal stability z-score with potassium arsenate was 0.0326; in the experiment with lipoamide (setting [1]), -0.0915; with lipoamide (arsenate co-treatment: none) it was 0.0556.
Consider EPHB4 (UniProt P54760), for which the thermal stability z-score with potassium arsenate was 0.295; with lipoamide (setting [1]), -0.297; in the experiment with lipoamide (arsenate co-treatment: none), -0.194.
On the same counts, the results for DNM1L (UniProt O00429) are 0.237, -0.508 and 0.234.
With MRPL47 (UniProt Q9HD33), the thermal stability z-score with potassium arsenate was 0.268; in the experiment with lipoamide (setting [1]), -0.428; in the experiment with lipoamide (arsenate co-treatment: none), -0.0176.
On the same counts, the results for CNOT6 (UniProt Q9ULM6) are 0.03, -0.197 and -0.108.
The matching figures for TAPBP (UniProt O15533): 0.709, -3.75 and -2.54.
For CEP131 (UniProt Q9UPN4), the thermal stability z-score was 0.215 with potassium arsenate, -0.287 with lipoamide (setting [1]) and -0.195 with lipoamide (arsenate co-treatment: none).
On the same counts, the results for AGPAT5 (UniProt Q9NUQ2) are -0.259, -0.478 and -0.94.
Consider NPEPL1 (UniProt Q8NDH3), for which the thermal stability z-score is 1.2 with potassium arsenate, -0.24 with lipoamide (setting [1]) and -0.808 with lipoamide (arsenate co-treatment: none).
As to STK25 (UniProt O00506), the thermal stability z-score with potassium arsenate is 0.496; with lipoamide (setting [1]), 0.466; in the experiment with lipoamide (arsenate co-treatment: none) it was -0.862.
Take CLIP1 (UniProt P30622): the thermal stability z-score in the experiment with potassium arsenate was -0.345; with lipoamide (setting [1]) it was -0.0952; with lipoamide (arsenate co-treatment: none), 0.0784.
On the same counts, the results for UFD1L (UniProt Q92890) are 0.36, -0.427 and -0.0782.
